Earlier results on 1 compound are cited in patent US20250353815A1, “AMINO ACID HAVING FLUORINE AT a-POSITION, AND DERIVATIVE OF SAME” (SynCrest Inc., priority 2022, published 2025).

Molecules are shown by their SMILES.

For data set [1], the system named is mouse somatic cells.
The test system of data set [2] is human somatic cells.
The target of data set [3] is DNA methyltransferase. Particulars: inhibition of DNA methyltransferase.
Data set [4] deals with DNA methyltransferase.

On to `O=C(O)[C@H](Cc1c[nH]c2ccccc12)N1C(=O)c2ccccc2C1=O` [RG-108, N-phthalyl-L-tryptophan], for which the “reprogramming of somatic cells into iPS cells” value in data set [1] and in data set [2] was “promotes the reprogramming” throughout. Further, the concentration for half-maximal inhibition (IC50) in data set [3] was 115 nM. For the same compound, in data set [4], the “binding to the active site of the enzyme in molecular modeling” value was “bind directly to the active site of the enzyme”.

The IC50 is the point on the concentration scale where inhibition reaches its midpoint.
